Marks after values point to notes of the source that are not given here.
Tests used:
[1] = Blood hemoglobin levels in indomethacin- and diclofenac-induced enteropathy in rats (Example 17); type: in vivo, male Albino Sprague Dawley rats; settings: 14 days; for Blood hemoglobin levels (in words): indomethacin […] BID, diclofenac 4 mg/kg BID, omeprazole 0.7 mg/kg/day, gastroresistant rifaximin 50 mg/kg BID, as named in the label; for Hemoglobin (g/dl): indomethacin […] BID or diclofenac 4 mg/kg BID
Experimental: (§1) A total of one hundred forty two (142) male Albino Sprague Dawley rats, 500 to 600 g body weight (40-week old) were assessed.
(§2) Group 1: ten animals treated with drug vehicle for 14 days (normal controls).
(§3) Group 6: twelve omeprazole-treated animals co-treated with gastroresistant rifaximin (50 mg/kg BID) for 14 days (omeprazole controls)
(§4) The enteropathy induced using diclofenac was carried out in the groups 8 to 11 as follows:
(§5) Group 8: fifteen animals treated with diclofenac 4 mg/kg BID (diclofenac ulcerated control
(§6) Group 9: fifteen animals treated with diclofenac 4 mg/kg BID and omeprazole 0.7 mg/kg once daily (diclofenac and omeprazole ulcerated control)
(§7) Group 10: twelve diclofenac-treated animals co-treated with gastroresistant rifaximin (50 mg/kg BID) for 14 days
(§8) Group 11: twelve diclofenac- and omeprazole-treated animals co-treated with gastroresistant rifaximin (50 mg/kg BID) for 14 days
(§9) Groups 1 to 11 were treated as follows:
(§10) Group 1 received 1% methylcellulose (0.3 ml/rat) and 1% methylcellulose (1 ml/rat) for 14 days.
(§11) Group 6 received gastroresistant rifaximin (50 mg/kg; 12 rats/group) suspended in 1% methylcellulose (1 ml/rat), twice daily, 1 hour before omeprazole 0.7 mg/kg once daily
(§12) Group 8 non-fasted rats were treated for 14 days with diclofenac 4 mg/kg BID by intragastric route, suspended in 1% methylcellulose and administered in a volume of 0.3 ml/rat.
(§13) Group 9 non-fasted rats were treated for 14 days with diclofenac 4 mg/kg BID, plus omeprazole 0.7 mg/kg once daily, by intragastric route, suspended in 1% methylcellulose and administered in a volume of 0.3 ml/rat.
(§14) Group 10 received gastroresistant rifaximin (50 mg/kg; 12 rats/group) suspended in 1% methylcellulose (1 ml/rat), twice daily, 1 hour before diclofenac administration
(§15) Group 11 received gastroresistant rifaximin (50 mg/kg; 12 rats/group) suspended in 1% methylcellulose (1 ml/rat), twice daily, 1 hour before diclofenac administration plus omeprazole 0.7 mg/kg once daily.
(§16) Twenty four hours after the last dose, the rats were euthanized and samples of blood were collected for the assessment of hemoglobin levels.
Haemoglobin analysis was performed on blood samples collected as reported above, using a Quantichrom Hemoglobin assay kit (Bioassay Systems, Hayward, Calif., USA) and expressed as g/dL.

[2] = tested on: myeloperoxidase (MPO); test: Tissue myeloperoxidase (MPO) levels in jejunum and ileum, ELISA (Example 17); type: in vivo, male Albino Sprague Dawley rats; settings: rats, indomethacin […] BID or diclofenac 4 mg/kg BID, 14 days
Experimental: (§17) (indomethacin plus omeprazole ulcerated controls)
as §9
(§18) The whole intestinal tract was removed and intestinal tissue specimens processed for the evaluation of tissue myeloperoxidase (MPO) levels, an index of tissue neutrophils infiltration, of tissue malondialdehyde (MDA) levels, an index of lipid peroxidation and histological analysis of intestinal damage in jejunum and ileum.
MPO was assessed as described by Fornai et al., NSAID-Induced Enteropathy: Are the Currently Available Selective COX-2 Inhibitors All the Same, J Pharmacol Exp Ther January 2014 348:86-95 and assumed as a quantitative index to estimate the degree of intestinal wall infiltration by polymorphonuclear cells.
Specimens of 30 mg intestinal tissues were homogenized on ice with a polytron homogenizer (QIAGEN, Milan, Italy) in 0.6 mL of ice-cold lysis buffer consisting of 200 mM NaCl, 5 mM EDTA, 10 mM Tris, 10% glycerine, 1 mM phenylmethylsulfonyl fluoride, 1 μg/ml leupeptin and 28 μg/ml aprotinin at pH 7.4. The homogenate was centrifuged 2 times at […] at 1.500 g. The supernatant was diluted 1:5 and used for determination of MPO concentration by means of enzyme-linked immunosorbent assay (ELISA). (Hycult Biotech, Uden, Netherlands). All samples were assayed as described in Example 15. The results were expressed as nanograms of MPO per milligram of intestinal tissue.

[3] = tested on: malondialdehyde (MDA); test: Tissue malondialdehyde (MDA) levels in jejunum and ileum, colorimetric assay (Example 17); type: in vivo, male Albino Sprague Dawley rats; settings: rats, indomethacin […] BID or diclofenac 4 mg/kg BID, 14 days
Experimental: as §17, §9, §18
MDA concentration in intestinal tissues was determined to obtain quantitative estimates of membrane lipid peroxidation as described by Fornai et al., NSAID-Induced Enteropathy: Are the Currently Available Selective COX-2 Inhibitors All the Same? J Pharmacol Exp Ther January 2014 348:86-95. For this purpose, intestinal tissue was excised, weighed, minced by forceps, homogenized in 2 ml of cold buffer consisting of Tris-HCl 20 mM, at pH 7.4, using a polytron homogenizer (QIAGEN, Milan, Italy), and centrifuged at 1,500 g for 10 min at 4° C. Aliquots of supernatants were then used for subsequent assay procedures. Mucosal MDA concentrations were estimated using a colorimetric assay kit (Cayman Chemical, Ann Arbor, Mich., U.S.A.). Results were expressed as nanomoles of MDA per milligram of intestinal tissue.

[4] = Mortality in indomethacin- and diclofenac-induced enteropathy in rats (Example 17); settings: 14 days, indomethacin […] BID, diclofenac 4 mg/kg BID, omeprazole 0.7 mg/kg/day, gastroresistant rifaximin 50 mg/kg BID, as named in the label
Experimental: as §1, §2, §3, §4, §5, §6, §7, §8, §9, §10, §11, §12, §13, §14, §15

[5] = tested on: indomethacin- and diclofenac-induced small intestinal damage; test: Microscopical analysis of small intestinal damage in jejunum and ileum (Example 17); type: in vivo, male Albino Sprague Dawley rats; settings: rats, 14 days; for Ileum lesions type 1, 2 and 3 (in words) / Jejunal lesions type 1, 2 and 3 (in words): indomethacin […] BID, diclofenac 4 mg/kg BID, omeprazole 0.7 mg/kg/day, gastroresistant rifaximin 50 mg/kg BID, as named in the label; for Ileum Type 1 lesion (%) / Ileum Type 2 lesion (%) / Ileum Type 3 lesion (%) / Jejunum Type 1 lesion (%) / Jejunum Type 2 lesion (%) / Jejunum Type 3 lesion (%): indomethacin […] BID or diclofenac 4 mg/kg BID
Experimental: as §2, §3, §4, §5, §6, §7, §8, §9, §10, §11, §12, §13, §14, §15, §18
(§19) Upon removal, the whole intestinal tract was immediately injected with 10% formalin and left in the same fixative solution. After 30 min, it was opened along the anti-mesenteric border, cleaned of fecal content and fixed in 10% formalin for 24 h. Tissue samples were taken as described below in order to rule out any bias:
The full length of the small intestine was measured.
Sections of jejunum and ileum were embedded into paraffin blocks and cut into […] serial 7-8 μm sections. The slices were cut at two different points of the block: two on the surface and three at a deeper level. Each slice was placed on the slide for staining with haematoxylin and eosin.
The intestinal damage was classified as reported in Table 27 wherein reference is made with respect to the histological appearance of type 1, 2 and 3 lesions of jejunum and ileum to the illustration of FIG. 1
The statistical significance of data was evaluated by one way analysis of variance (ANOVA) followed by post hoc analysis by Student-Newman-Keuls test, and P values lower than 0.05 were considered significant. All statistical procedures were performed using GraphPad Prism 3.0 software (GraphPad Prism, San Diego, Calif., USA).

[6] = tested on: myeloperoxidase (MPO); test: Tissue myeloperoxidase (MPO) levels in jejunum and ileum, ELISA (Example 16); type: in vivo, male Albino Sprague Dawley rats; settings: rats; indomethacin […] BID 14 days, alone or with gastroresistant rifaximin 25 or 50 mg/kg BID or rifaximin polymorph alpha 50 mg/kg BID
Experimental: (§20) The whole intestinal tract was removed and processed for the evaluation of tissue myeloperoxidase (MPO) levels and histological analysis of intestinal damage in jejunum and ileum.
Specimens of intestinal tissues (30 mg) were homogenized on ice with a polytron homogenizer (QIAGEN, Milan, Italy) in 0.6 mL of ice-cold lysis buffer (200 mM NaCl, 5 mM EDTA, 10 mM Tris, 10% glycerine, 1 mM PMSF, 1 μg/ml leupeptin and 28 μg/ml aprotinin (pH 7.4). The homogenate was centrifuged 2 times at 4° C. for 15 min at 1.500 g. The supernatant was diluted 1:5 and used for determination of MPO concentration by means of enzyme-linked immunosorbent assay (ELISA) (Hycult Biotech, Uden, Netherlands). All samples were assayed within 2 day after collection. The results were expressed as nanograms of MPO per milligram of intestinal tissue.

[7] = Blood hemoglobin levels in indomethacin-induced enteropathy in rats (Example 16); type: in vivo, male Albino Sprague Dawley rats
Experimental: as §16
Hemoglobin analysis was performed on rat blood samples collected as reported above, by means of Quantichrom Hemoglobin assay kit (Bioassay Systems, Hayward, Calif., USA) and expressed as g/dL.

[8] = tested on: indomethacin - induced microscopic intestinal damage; test: Histological analysis of intestinal damage in jejunum and ileum (Example 16); type: in vivo, male Albino Sprague Dawley rats; settings: rats; indomethacin […] BID 14 days, alone or with gastroresistant rifaximin 25 and 50 mg/kg BID or rifaximin polymorph alpha 50 mg/kg BID
Experimental: as §20
as §19, with “Pharmacol. Ther. 1993; 7:29-39. Upon” for “Upon”, “and the full length of small intestine was measured.” for “in order to rule out any bias:”
In particular the following tissue samples were taken • Ileum: 1 cm of tissue proximal to the ileo-cecal valve was discarded and two specimens of 1.5-2 cm of ileum were taken at this edge as well as 5 cm away from the first ileum sample • Proximal jejunum: two specimens of 1.5-2 cm were taken 5 cm away from both the proximal and distal end of the 37.5% of the small intestine total length. • Distal jejunum: two specimens of 1.5-2 cm were taken 5 cm away from both the proximal and distal end of 81% of small intestine's total length.
After fixation, tissues were embedded into paraffin blocks and were cut into consecutive serial 3-μm sections for staining with hematoxylin and eosin. Histological damage was assessed by two observers, blind to the treatment. Each section was given a score of lesion (Type 1 to 3) (TABLE 23).
Quantitative assessment of histological damage was expressed as percentage of the total length of lesions over the total length of the histological section.

O=C(O)Cc1ccccc1Nc1c(Cl)cccc1Cl [Diclofenac, diclofenac]
Blood hemoglobin levels (in words) [1]: significant decrease in blood haemoglobin concentration | Hemoglobin (g/dl) [1]: 11.3* g/dl | Ileum MPO (ng/mg tissue) [2]: 19.35* ng/mg tissue | Jejunum MPO (ng/mg tissue) [2]: 20.37* ng/mg tissue | Ileum MPO (ng/mg tissue) ([2]; listed as diclofenac): 19.35 ng/mg tissue | Jejunum MPO (ng/mg tissue) ([2]; listed as diclofenac): 20.37 ng/mg tissue | Ileum MDA (nmol/mg tissue) [3]: 67.1* nmol/mg tissue | Jejunum MDA (nmol/mg tissue) [3]: 69.44* nmol/mg tissue | Ileum MDA (nmol/mg tissue) ([3]; listed as diclofenac): 67.1 nmol/mg tissue | Jejunum MDA (nmol/mg tissue) ([3]; listed as diclofenac): 69.44 nmol/mg tissue | Mortality (dead/treated animals) [4]: 7/15 | Mortality (%) ([4]; listed as diclofenac): 46.7% | Ileum lesions type 1, 2 and 3 (in words) [5]: occurrence of various degrees of type 1, 2 and 3 lesions in both jejunum and ileum | Jejunal lesions type 1, 2 and 3 (in words) [5]: occurrence of various degrees of type 1, 2 and 3 lesions in both jejunum and ileum | Ileum Type 1 lesion (%) [5]: 26* % | Ileum Type 2 lesion (%) [5]: 8.8* % | Ileum Type 3 lesion (%) [5]: 3* % | Jejunum Type 1 lesion (%) [5]: 24.6* % | Jejunum Type 2 lesion (%) [5]: 4.2* % | Jejunum Type 3 lesion (%) [5]: 0.8* %

COc1ccc2c(c1)c(CC(=O)O)c(C)n2C(=O)c1ccc(Cl)cc1 [Indomethacin, indomethacin]
Blood hemoglobin levels (in words) [1]: significant decrease in blood haemoglobin concentration | Hemoglobin (g/dl) [1]: 11.6* g/dl | Ileum MDA (nmol/mg tissue) [3]: 54.47* nmol/mg tissue | Jejunum MDA (nmol/mg tissue) [3]: 66.15* nmol/mg tissue | Ileum MDA (nmol/mg tissue) ([3]; listed as indomethacin): 54.47 nmol/mg tissue | Jejunum MDA (nmol/mg tissue) ([3]; listed as indomethacin): 66.15 nmol/mg tissue | Mortality (dead/treated animals) [4]: 2/15 | Ileum tissue MPO levels (in words) [6]: significant increase in tissue MPO levels | Jejunum tissue MPO levels (in words) [6]: significantly increased | Reduction in hemoglobin values ([7]; end of the treatment period (14 days), in respect to the control): about 20% | Blood hemoglobin concentration (in words) ([7]; indomethacin […] BID 14 days, alone or with gastroresistant rifaximin at both doses or rifaximin polymorph alpha 50 mg/kg BID): significant decrease in blood hemoglobin concentration | Ileum type 1 lesions, microscopic assessment (in words) [8]: occurrence of type 1 and 2 lesions | Ileum type 2 lesions, microscopic assessment (in words) [8]: occurrence of type 1 and 2 lesions | Ileum type 3 lesions, microscopic assessment (in words) [8]: no significant differences were detected for type 3 lesions | Jejunum type 1 lesions, microscopic assessment (in words) [8]: occurrence of various degrees of type 1, 2 and 3 lesions | Jejunum type 2 lesions, microscopic assessment (in words) [8]: occurrence of various degrees of type 1, 2 and 3 lesions | Jejunum type 3 lesions, microscopic assessment (in words) [8]: occurrence of various degrees of type 1, 2 and 3 lesions | Ileum lesions type 1, 2 and 3 (in words) [5]: occurrence of various degrees of type 1, 2 and 3 lesions in both jejunum and ileum | Jejunal lesions type 1, 2 and 3 (in words) [5]: occurrence of various degrees of type 1, 2 and 3 lesions in both jejunum and ileum | Ileum Type 1 lesion (%) [5]: 28.3* % | Ileum Type 2 lesion (%) [5]: 11.8* % | Ileum Type 3 lesion (%) [5]: 5.2* % | Jejunum Type 1 lesion (%) [5]: 36* % | Jejunum Type 2 lesion (%) [5]: 18* % | Jejunum Type 3 lesion (%) [5]: 4.6* %
